From patent publication US4112105A, “Anti-inflammatory 3-(substituted-amino)-2,1-benzisothiazoles” (Sterling Drug Inc., priority 1977, dated 1978) come the findings set out here.

Structures can show the parent of a compound that is named as a salt.

A short description of data set [1]: inhibition of carrageenin-induced foot edema test. Format: in vivo. The settings on record: for inhibition in vivo at 80 µmol/kg: 0.08 mMole/kg; for inhibition in vivo at 324 µmol/kg: 0.324 mMole/kg; for inhibition in vivo at 30 µmol/kg: 0.03 mMole/kg; for inhibition in vivo at 90 µmol/kg: 0.09 mMole/kg; for inhibition in vivo at 270 µmol/kg: 0.27 mMole/kg; for side effects (footnote e): 4 hours post medication. On the procedure:
Anti-inflammatory activity was determined using (1) the inhibition of carrageenin-induced foot edema test essentially described by Van Arman et al., J. Pharmocol. Exptl. Therap. 150, 328 (1965) as a modification of the procedure of Winter et al., Proc. Soc. Exp. Biol. and Med. 111, 544 (1962) and (2) a modification of the inhibition of adjuvant-induced arthritis test described by Pearson, J. Chronic Diseases 16, 863 (1963) and Glenn et al., Am. J. Vet. Res. 26, 1180 (1965).
Representative examples of the compounds of this invention have been tested in the carrageenin edema and adjuvant arthritis tests as described hereinabove and found to have anti-inflammatory activity. Test data, given as percent inhibition at a dose expressed in millimoles (mMole/kg) are presented hereinbelow. All test compounds were administered orally.
The data for a number of examples are presented in several separate groups each representing the test results wherein anti-inflammatory activity was measured at one or more dose levels against a single set of controls.
A general note: The carrageenan paw model is a standard test of acute inflammation.

Data set [2] is described as follows: inhibition of adjuvant-induced arthritis test. The format is in vivo. On the procedure: Anti-inflammatory activity was determined using (1) the inhibition of carrageenin-induced foot edema test essentially described by Van Arman et al., J. Pharmocol. Exptl. Therap. […] J. Vet.
All test compounds were administered orally.

Broadly, the inhibition in vivo is the relative decrease from the control value, in per cent. Regarding `CCN(CCO)CCCC(C)Nc1snc2cc(Cl)ccc12` (stereo not drawn) [Example 11, 6-chloro-3-<{4-[N-ethyl-N-(2-hydroxyethyl)amino]-1-methylbutyl}amino>-2,1-benzisothiazole 1,5-naphthalenedisulfonate], in data set [1] (po), the inhibition in vivo at 80 µmol/kg was determined as 18% and the inhibition in vivo at 324 µmol/kg worked out at 38%. Moreover, the inhibition in vivo at 240 µmol/kg in data set [2] (po, 0.24 mMole/kg) was determined as 54%. The inhibition in vivo at 320 µmol/kg in data set [2] (po, 0.32 mMole/kg) was found to be 67%. Besides, the inhibition in vivo at 324 µmol/kg in data set [2] (po, 0.324 mMole/kg) came to 36%. In addition, in data set [2] (po, 0.40 mMole/kg), the inhibition in vivo at 400 µmol/kg came to 71%.

In the case of `CN1CCN(c2snc3cc(Cl)ccc23)CC1` [Example 4C, 6-chloro-3-(4-methyl-1-piperazinyl)-2,1-benzisothiazole], the inhibition in vivo at 324 µmol/kg turned out to be 41% in data set [1] (po) and 10% in data set [2] (po, 0.324 mMole/kg).

As to `CCN(CC)CCCC(C)NC(=S)c1ccc(Cl)cc1[N+](=O)[O-].Cl` (stereo not drawn) [Example 1C, 4-chloro-N-[4-(diethylamino)-1-methylbutyl]-2-nitrothiobenzamide hydrochloride], the inhibition in vivo at 324 µmol/kg in data set [1] (po) amounted to 38%; in data set [2] (po, 0.324 mMole/kg), 60%. The “side effects (footnote b)” value in data set [2] (oral, 0.324 mMole/kg) is on record as “loss of hair, yellow urine”.

`CCN(CC)CCCC(C)NC(=O)c1ccc(Cl)cc1[N+](=O)[O-]` (stereo not drawn) [Example 1B, 4-chloro-N-[4-(diethylamino)-1-methylbutyl]-2-nitrobenzamide]: the inhibition in vivo at 324 µmol/kg was 29% in data set [1] (po) and 16% in data set [2] (po, 0.324 mMole/kg).

In data set [1] (po), `CN(C)CCNc1snc2ccc(Cl)cc12` [Example 9] yielded an inhibition in vivo at 80 µmol/kg of 8% and an inhibition in vivo at 324 µmol/kg of 0%. The molecule also returned an inhibition in vivo at 320 µmol/kg in data set [1] (po, 0.32 mMole/kg) of 0%. In data set [1] (po, 0.64 mMole/kg), this molecule showed an inhibition in vivo at 640 µmol/kg of 23%.

As to `CCN(CC)Cc1cc(Nc2snc3ccc(Cl)cc23)ccc1O` [Example 14, 5-chloro-3-{[3-(diethylamino)methyl-4-hydroxyphenyl]amino}-2,1-benzisothiazole], the inhibition in vivo at 80 µmol/kg is 22% in data set [1] (po) and 0% in data set [2] (po, 0.08 mMole/kg). The inhibition in vivo at 324 µmol/kg in data set [1] (po) stood at 72%.

In data set [1] (po), `CN(C)CCCNc1snc2cc(Cl)ccc12` [Example 6C, 6-chloro-3-{[3-(dimethylamino)propyl]amino}-2,1-benzisothiazole dihydrochloride] registered an inhibition in vivo at 30 µmol/kg of 0%, an inhibition in vivo at 90 µmol/kg of 24%, an inhibition in vivo at 270 µmol/kg of 41% and an inhibition in vivo at 324 µmol/kg of 35%. Moreover, in data set [2] (po, 0.324 mMole/kg), the inhibition in vivo at 324 µmol/kg turned out to be 0%.

Consider `CN(C)CCCNC(=S)c1ccc(Cl)cc1[N+](=O)[O-]` [Example 6B, 4-chloro-N-[3-(dimethylamino)propyl]-2-nitrothiobenzamide hydrochloride], for which the inhibition in vivo at 324 µmol/kg in data set [1] (po) amounted to 39%; in data set [2] (po, 0.324 mMole/kg) it was 8%.

Turning to `CN(C)CCCCNc1snc2cc(Cl)ccc12` [Example 7C, 6-chloro-3-{[4-(dimethylamino)butyl]amino}-2,1-benzisothiazole], in data set [1] (po), the inhibition in vivo at 30 µmol/kg came out at 0%, the inhibition in vivo at 90 µmol/kg came out at 9% and the inhibition in vivo at 270 µmol/kg came out at 32%. In addition, the inhibition in vivo at 324 µmol/kg in data set [2] (po, 0.324 mMole/kg) came out at 25%.

Take `CCN(CC)Cc1cc(Nc2snc3cc(Cl)ccc23)ccc1O` [Example 15, 6-chloro-3-{[3-(diethylamino)methyl-4-hydroxyphenyl]amino}-2,1-benzisothiazole]: the inhibition in vivo at 320 µmol/kg in data set [1] (po, 0.32 mMole/kg) turned out to be 30%. This molecule had an inhibition in vivo at 640 µmol/kg in data set [1] (po, 0.64 mMole/kg) of 32%.

For the molecule `Clc1ccc2c(NCCN3CCCC3)snc2c1` [Example 3C, 6-chloro-3-{[2-(1-pyrrolidinyl)-ethyl]amino}-2,1-benzisothiazole], in data set [1] (po), the inhibition in vivo at 30 µmol/kg came to 15%, the inhibition in vivo at 90 µmol/kg worked out at 12% and the inhibition in vivo at 270 µmol/kg amounted to 32%. The molecule further gave an inhibition in vivo at 320 µmol/kg in data set [1] (po, 0.32 mMole/kg) of 29%. Further, the inhibition in vivo at 640 µmol/kg in data set [1] (po, 0.64 mMole/kg) worked out at 52%. Besides, the inhibition in vivo at 324 µmol/kg in data set [2] (po, 0.324 mMole/kg) stood at 14%.

`Clc1ccc2c(NCCN3CCN(c4ccccc4)CC3)snc2c1` [Example 13, 6-chloro-3-{[2-(4-phenyl-1-piperazinyl)ethyl]amino}-2,1-benzisothiazole] came in with an inhibition in vivo at 64 µmol/kg in data set [1] (po, 0.064 mMole/kg) of 35%. In addition, in data set [1] (po), the inhibition in vivo at 80 µmol/kg is 11% and the inhibition in vivo at 324 µmol/kg stood at 16%.

`CN1CCN(c2snc3ccc(Cl)cc23)CC1` [Example 8, 5-chloro-3-(4-methyl-1-piperazinyl)-2,1-benzisothiazole]: in data set [1] (po), the inhibition in vivo at 80 µmol/kg worked out at 15% and the inhibition in vivo at 324 µmol/kg was found to be 51%. For the same molecule, the inhibition in vivo at 324 µmol/kg in data set [2] (po, 0.324 mMole/kg) was 0%.

As for `CN(C)CCNC(=S)c1ccc(Cl)cc1[N+](=O)[O-]` [Example 5B, 4-chloro-N-[2-(dimethylamino)ethyl]-2-nitrothiobenzamide hydrochloride], the inhibition in vivo at 324 µmol/kg in data set [1] (po) is 43%; in data set [2] (po, 0.324 mMole/kg), 2%.

With `CCN(CC)CCCC(C)N(C)c1snc2cc(Cl)ccc12` (stereo not drawn) [Example 2C, 6-chloro-3-{[4-(diethylamino)-1-methylbutyl]methylamino}-2,1-benzisothiazole], in data set [1] (po), the inhibition in vivo at 324 µmol/kg turned out to be 71%. Moreover, in data set [2] (oral, 0.324 mMole/kg), the “toxicity in adjuvant arthritis test” value is “Toxic”. Besides, in data set [2] (po, 0.072 mMole/kg), the inhibition in vivo at 72 µmol/kg worked out at 0%.

For `CN1CCN(C(=S)c2ccc(Cl)cc2[N+](=O)[O-])CC1` [Example 4B, 1-(4-chloro-2-nitrothiobenzoyl)-4-methylpiperazine], the inhibition in vivo at 324 µmol/kg in data set [1] (po) turned out to be 28%; in data set [2] (po, 0.324 mMole/kg), 0%.

Consider `CCN(CC)CCCC(C)Nc1snc2ccc(Cl)cc12` (stereo not drawn) [Example 10], for which the “side effects (footnote e)” value in data set [1] (oral, 0.32 mMole/kg) is “skeletal muscle relaxation, hypothermia and ptosis”; in data set [1] (oral, 0.64 mMole/kg), “skeletal muscle relaxation, hypothermia and ptosis”. In data set [1] (po), this molecule displayed an inhibition in vivo at 80 µmol/kg of 0%. The same molecule gave an inhibition in vivo at 320 µmol/kg in data set [1] (po, 0.32 mMole/kg) of 62%. The molecule further had an inhibition in vivo at 324 µmol/kg in data set [1] (po) of 15%. The molecule further registered an inhibition in vivo at 640 µmol/kg in data set [1] (po, 0.64 mMole/kg) of 50%.

Consider `CCN(CC)Cc1cc(Nc2snc3ccccc23)ccc1O` [Example 16, 3-{[3-(diethylamino)methyl-4-hydroxyphenyl]amino}-2,1-benzisothiazole], for which, in data set [1] (po), the inhibition in vivo at 80 µmol/kg turned out to be 2% and the inhibition in vivo at 324 µmol/kg stood at 55%. Moreover, the inhibition in vivo at 324 µmol/kg in data set [2] (po, 0.324 mMole/kg) was 18%.

Regarding `CN(C)CCNc1snc2cc(Cl)ccc12` [Example 5C], in data set [1] (po), the inhibition in vivo at 30 µmol/kg amounted to 19%, the inhibition in vivo at 90 µmol/kg came to 14%, the inhibition in vivo at 270 µmol/kg stood at 29% and the inhibition in vivo at 324 µmol/kg was 28%. Further, the inhibition in vivo at 324 µmol/kg in data set [2] (po, 0.324 mMole/kg) is 0%.

As to `CN(C)CCCCNC(=S)c1ccc(Cl)cc1[N+](=O)[O-]` [Example 7B, 4-chloro-N-[4-(dimethylamino)butyl]-2-nitrothiobenzamide], the “side effects (footnote d)” value in data set [1] (oral, 1.11 mMole/kg) is “salivation”. In addition, the inhibition in vivo at 1110 µmol/kg in data set [1] (po, 1.11 mMole/kg) was determined as 63%. In data set [2] (po, 0.80 mMole/kg), the inhibition in vivo at 800 µmol/kg came to 15%.

Regarding `CCN(CC)CC(O)CNc1snc2cc(Cl)ccc12` (stereo not drawn) [Example 12, 6-chloro-3-{[3-(diethylamino)-2-hydroxypropyl]amino}-2,1-benzisothiazole], the inhibition in vivo at 80 µmol/kg in data set [1] (po) turned out to be 14%. Besides, the inhibition in vivo at 324 µmol/kg stood at 35% in data set [1] (po) and 16% in data set [2] (po, 0.324 mMole/kg).
